{"source": "paper PMC5219024", "about": "“New acetylenic derivatives of betulin and betulone, synthesis and cytotoxic activity” (Medicinal Chemistry Research, 2016)", "key": {"[1]": {"system": "HL-60 (human promyelocytic leukemia)", "test": "Antiproliferative assay in vitro (MTT), HL-60", "format": "cell-based", "settings": "for IC50: Homo sapiens, HL-60 cancer cell line, 96 h exposure, read-out: Cytotoxic activity IC50, HL-60", "experimental": "(§1) The tested cell lines were obtained from the American Type Culture Collection (Rockville, Maryland, USA) and maintained at the Cell Culture Collection of the Institute of Immunology and Experimental Therapy (Wrocław, Poland). The cells were seeded in 96-well plates (Sarstedt, USA) at a density of 10^4 cells per well in 100 µL of culture medium overnight. […] The normal mouse fibroblasts BALB3T3 was cultured in Dulbecco’s modified Eagle’s medium (Sigma-Aldrich, Chemie GmbH, Steinheim, Germany) supplemented with 2 mM glutamine (Sigma-Aldrich, Chemie GmbH, Steinheim, Germany) and 10 % fetal calf serum FBS (Sigma-Aldrich, Chemie GmbH, Steinheim, Germany). The all culture media were supplemented with streptomycin (100 µg/mL) and penicillin (100 U/mL) (both antibiotics from Polfa, Tarchomin, Poland). The cell cultures were maintained at 37 °C in humid atmosphere saturated with 5 % CO2. The MTT assay was used for the cytotoxicity screening against leukemia cells growing in suspension culture. This assay was performed after 96 h of the leukemia cells to varying concentrations (ranging from 1 to 100 µg/mL) of the tested substances. The derivatives of betulin were dissolved in 10 % DMSO to concentration of 1 mg/mL, and next diluted in culture medium to reach the required concentrations. […] During the last 3–4 h of incubation 20 µl of MTT solution were added to each well (MTT: 3-(4,5-dimethylthiazol-2-yl)-2,5-diphenyl tetrazolium bromide; stock solution: 5 mg/mL). The pale yellow MTT is reduced to a navy blue formazan in the mitochondria of living cells. At the end of incubation time, 80 µL of the lysing mixture was added to each well (lysing mixture: 225 mL dimethylformamide, 67.5 g sodium dodecyl sulfate and 275 mL of distilled water). After 24 h are formed the crystals of formazan, which are insoluble in aqueous solutions. The formazan crystals had been dissolved. The optical densities were read on a Multiskan RC photometer at 570 nm wavelength. The compounds in given concentration were examined in triplicates in each experiment which was repeated 3–5 times. The results of cytotoxic activity in vitro were expressed as an IC50 in µg/mL."}, "[2]": {"system": "T47D (human breast cancer)", "test": "Antiproliferative assay in vitro (SRB), T47D", "format": "cell-based", "settings": "human T47D, 96 h exposure, 1 to 100 µg/mL, Neg = negative in the concentration used; for IC50: read-out: Cytotoxic activity IC50, T47D", "experimental": "(§2) The tested cell lines were obtained from the American Type Culture Collection (Rockville, Maryland, USA) and maintained at the Cell Culture Collection of the Institute of Immunology and Experimental Therapy (Wrocław, Poland). The cells were seeded in 96-well plates (Sarstedt, USA) at a density of 10^4 cells per well in 100 µL of culture medium overnight. […] The normal mouse fibroblasts BALB3T3 was cultured in Dulbecco’s modified Eagle’s medium (Sigma-Aldrich, Chemie GmbH, Steinheim, Germany) supplemented with 2 mM glutamine (Sigma-Aldrich, Chemie GmbH, Steinheim, Germany) and 10 % fetal calf serum FBS (Sigma-Aldrich, Chemie GmbH, Steinheim, Germany). The all culture media were supplemented with streptomycin (100 µg/mL) and penicillin (100 U/mL) (both antibiotics from Polfa, Tarchomin, Poland). The cell cultures were maintained at 37 °C in humid atmosphere saturated with 5 % CO2. This technique as first was described by Skehan et al. in [1990]. The SRB assay was performed after 96 h exposure of the cultured cells to varying concentrations (ranging from 1 to 100 µg/mL) of the tested substances. The reported derivatives as well as betulin 1 were dissolved in 10 % dimethyl sulfoxide (DMSO) to concentration of 1 mg/mL, and next diluted in culture medium to reach the required concentrations. […] The cells fastened to the plastic were fixed mildly layering cold 50 % TCA (trichloroacetic acid, Aldrich-Chemie, Germany) on the top of the culture medium in each well. The plates were incubated at 4 °C for 1 h and then washed five times with tap water. The cells fixed with TCA were stained with 0.4 % sulforhodamine B (SRB, Sigma, Germany) dissolved in 1 % acetic acid (POCH, Gliwice, Poland) for 30 min. The unbound dye was removed by rinsing four times with 1 % acetic acid. The protein-bound dye was extracted with 10 mM unbuffered tris base (POCH, Gliwice, Poland) and then determined the optical density at 540 nm in a computer-interfaced, 96-well microtiter plate reader Multiscan RC photometer (Labsystems, Helsinki, Finland). The compounds in given concentration were examined in triplicates in each experiment which was repeated 3–5 times. The results of cytotoxic activity in vitro were expressed as an IC50 in µg/mL."}, "[3]": {"system": "CCRF/CEM (human leukemia)", "test": "Antiproliferative assay in vitro (MTT), CCRF/CEM", "format": "cell-based", "settings": "human CCRF/CEM, 96 h exposure, 1 to 100 µg/mL, Neg = negative in the concentration used; for IC50: read-out: Cytotoxic activity IC50, CCRF/CEM", "experimental": "as §1"}, "SW707 (human colorectal)": {"system": "SW707 (human colorectal)", "test": "Antiproliferative assay in vitro (SRB), SW707", "format": "cell-based", "settings": "human SW707; 96 h exposure; 1 to 100 µg/mL; Neg = negative in the concentration used", "experimental": "as §2"}, "P388 (mouse leukemia)": {"system": "P388 (mouse leukemia)", "test": "Antiproliferative assay in vitro (MTT), P388", "format": "cell-based", "settings": "murine P388, 96 h exposure, 1 to 100 µg/mL, Neg = negative in the concentration used; for IC50: Mus musculus, read-out: Cytotoxic activity IC50, P388", "experimental": "as §1"}, "[4]": {"system": "BALB3T3 normal mouse fibroblasts", "test": "Antiproliferative assay in vitro (SRB), BALB3T3", "format": "cell-based", "settings": "murine BALB3T3 normal fibroblasts; 96 h exposure; 1 to 100 µg/mL; Neg = negative in the concentration used", "experimental": "as §2"}}}
{"smiles": "C#CC(=O)OC[C@]12CC[C@@H](C(=C)C)C1C1CCC3[C@@]4(C)CCC(=O)C(C)(C)C4CC[C@@]3(C)[C@]1(C)CC2", "note": "(stereo partly drawn) [Compound 17, 28-O-Propynoylbetulone]", "values": [{"measurement": "IC50", "setting": "[1]", "value": "0.3 ± 0.06", "unit": "µg/mL"}, {"measurement": "fold potent than betulin 1 against HL-60", "setting": "[1]; relative to betulin 1, HL-60", "value": 24, "unit": "fold"}, {"measurement": "melting point", "value": "93 to 96", "unit": "°C"}]}
{"smiles": "C=C(C)[C@@H]1CC[C@]2(COC(=O)C#CC3CC3)CC[C@]3(C)C(CCC4[C@@]5(C)CCC(=O)C(C)(C)C5CC[C@]43C)C12", "note": "(stereo partly drawn) [Compound 18, 28-O-(3-Cyclopropyl-2-propynoyl)betulone]", "values": [{"measurement": "IC50", "setting": "[1]", "value": "33.9 ± 5.5", "unit": "µg/mL"}, {"measurement": "melting point", "value": "93 to 97", "unit": "°C"}]}
{"smiles": "C=C(C)[C@@H]1CC[C@]2(COC(=O)C#Cc3ccccc3)CC[C@]3(C)C(CCC4[C@@]5(C)CCC(=O)C(C)(C)C5CC[C@]43C)C12", "note": "(stereo partly drawn) [Compound 19, 28-O-Phenylpropynoylbetulone]", "values": [{"measurement": "Cytotoxic activity IC50, T47D", "setting": "[2]", "value": "Neg"}, {"measurement": "Cytotoxic activity IC50, CCRF/CEM", "setting": "[3]", "value": "Neg"}, {"measurement": "Cytotoxic activity IC50, SW707", "setting": "SW707 (human colorectal)", "value": "Neg"}, {"measurement": "Cytotoxic activity IC50, P388", "setting": "P388 (mouse leukemia)", "value": "Neg"}, {"measurement": "Cytotoxic activity IC50, BALB3T3", "setting": "[4]", "value": "Neg"}, {"measurement": "melting point", "value": "82 to 85", "unit": "°C"}]}
{"smiles": "C=C(C)[C@@H]1CC[C@]2(COC(=O)C#CC)CC[C@]3(C)C(CCC4[C@@]5(C)CCC(=O)C(C)(C)C5CC[C@]43C)C12", "note": "(stereo partly drawn) [Compound 21, 28-O-(2-Butynoyl)betulone]", "values": [{"measurement": "IC50", "setting": "[1]", "value": "29.5 ± 5.4", "unit": "µg/mL"}, {"measurement": "melting point", "value": "92 to 94", "unit": "°C"}]}
{"smiles": "C=C(C)[C@@H]1CC[C@]2(COC(=O)OCCC)CC[C@]3(C)C(CCC4[C@@]5(C)CCC(=O)C(C)(C)C5CC[C@]43C)C12", "note": "(stereo partly drawn) [Compound 22, 28-O-Propoxycarbonylbetulone]", "values": [{"measurement": "IC50", "setting": "[1]", "value": "21.4 ± 2.1", "unit": "µg/mL"}, {"measurement": "melting point", "value": "76 to 78", "unit": "°C"}]}
{"smiles": "C=CCOC(=O)OC[C@]12CC[C@@H](C(=C)C)C1C1CCC3[C@@]4(C)CCC(=O)C(C)(C)C4CC[C@@]3(C)[C@]1(C)CC2", "note": "(stereo partly drawn) [Compound 23, 28-O-Allyloxycarbonylbetulone]", "values": [{"measurement": "IC50", "setting": "[1]", "value": "28.4 ± 1.6", "unit": "µg/mL"}, {"measurement": "melting point", "value": "123 to 125", "unit": "°C"}]}
{"smiles": "C#CCOC(=O)OC[C@]12CC[C@@H](C(=C)C)C1C1CCC3[C@@]4(C)CCC(=O)C(C)(C)C4CC[C@@]3(C)[C@]1(C)CC2", "note": "(stereo partly drawn) [Compound 24, 28-O-Propargyloxycarbonylbetulone]", "values": [{"measurement": "IC50", "setting": "[2]", "value": "23.3 ± 3.5", "unit": "µg/mL"}, {"measurement": "IC50", "setting": "[3]", "value": "18.7 ± 6.6", "unit": "µg/mL"}, {"measurement": "Cytotoxic activity IC50, SW707", "setting": "SW707 (human colorectal)", "value": "Neg"}, {"measurement": "IC50", "setting": "P388 (mouse leukemia)", "value": "30.3 ± 11.8", "unit": "µg/mL"}, {"measurement": "Cytotoxic activity IC50, BALB3T3", "setting": "[4]", "value": "Neg"}, {"measurement": "IC50", "setting": "[1]", "value": "11.6 ± 4.9", "unit": "µg/mL"}, {"measurement": "melting point", "value": "173 to 175", "unit": "°C"}]}
{"smiles": "C#CCCOC(=O)OC[C@]12CC[C@@H](C(=C)C)C1C1CCC3[C@@]4(C)CCC(=O)C(C)(C)C4CC[C@@]3(C)[C@]1(C)CC2", "note": "(stereo partly drawn) [Compound 25, 28-O-(3-Butynyloxycarbonyl)betulone]", "values": [{"measurement": "IC50", "setting": "[2]", "value": "29.8 ± 10.7", "unit": "µg/mL"}, {"measurement": "IC50", "setting": "[3]", "value": "25.2 ± 4.6", "unit": "µg/mL"}, {"measurement": "Cytotoxic activity IC50, SW707", "setting": "SW707 (human colorectal)", "value": "Neg"}, {"measurement": "IC50", "setting": "P388 (mouse leukemia)", "value": "3.8 ± 1.9", "unit": "µg/mL"}, {"measurement": "Cytotoxic activity IC50, BALB3T3", "setting": "[4]", "value": "Neg"}, {"measurement": "melting point", "value": "81 to 84", "unit": "°C"}]}
{"smiles": "C=C(C)[C@@H]1CC[C@]2(COC(=O)OCC#CC)CC[C@]3(C)C(CCC4[C@@]5(C)CCC(=O)C(C)(C)C5CC[C@]43C)C12", "note": "(stereo partly drawn) [Compound 26, 28-O-(2-Butynyloxycarbonyl)betulone]", "values": [{"measurement": "IC50", "setting": "[2]", "value": "79.2 ± 5.2", "unit": "µg/mL"}, {"measurement": "IC50", "setting": "[3]", "value": "47.6 ± 5.7", "unit": "µg/mL"}, {"measurement": "Cytotoxic activity IC50, SW707", "setting": "SW707 (human colorectal)", "value": "Neg"}, {"measurement": "IC50", "setting": "P388 (mouse leukemia)", "value": "18.3 ± 12.9", "unit": "µg/mL"}, {"measurement": "Cytotoxic activity IC50, BALB3T3", "setting": "[4]", "value": "Neg"}, {"measurement": "melting point", "value": "150 to 152", "unit": "°C"}]}
